pEC50: −log10 of the molar value.
Tests used:
Hepatitis C virus = assay: Antiviral activity against HCV in Huh7-Rep cells by luciferase assay; assay type: functional, organism-based, Hepacivirus hominis
[1] = Cytotoxicity against MT4 cells by luciferase assay; assay type: cell-based; conditions: human
[2] = Cytotoxicity against Huh7 cells by luciferase assay; assay type: cell-based, Huh-7; conditions: human

Structure (SMILES) | pEC50 (Hepatitis C virus) | CC50 [1] [µM] | CC50 [2] [µM]
Fc1ccc(Br)cc1-c1nc(N(CCc2ccccc2)c2ccncc2)c2nccnc2n1 | 5.71 | 11 | 22.2
COc1cnc(-c2cc(Cl)ccc2F)nc1Nc1ccncc1C(=O)NC[C@H]1CCCO1 | 5.59 | > 32 | > 32
Fc1ccccc1-c1nc(Nc2ccncc2)c2nccnc2n1 | 5.00 | > 25 | > 25
COc1cnc(-c2cc(Cl)ccc2F)nc1Nc1ccncc1C(=O)NCCCN1CCOCC1 | 5.60 | 15.4 | 17.1
COc1cnc(-c2cc(Cl)ccc2F)nc1Nc1ccncc1C(=O)NCCNCC(C)O (centres undefined) | 5.02 | > 32 | > 32

The next lines start with results.

pEC50 (Hepatitis C virus) | Structure (SMILES) | CC50 [1] [µM] | CC50 [2] [µM]
7.08 | COc1cnc(-c2cc(Cl)ccc2F)nc1Nc1ccncc1C(=O)NCCCN1CCCC1=O | 5.8 | 17.7
6.07 | COc1cnc(-c2cc(Cl)ccc2F)nc1Nc1ccncc1C(=O)NCCNCCO | > 32 | > 32
5.70 | CN(c1ccccc1)c1nc(-c2cc(Br)ccc2F)nc2nccnc12 | > 32 | > 32
